Experiment: In vitro kinetics of release of aromatic molecules in water (test A samples)
Assay type: physicochemical
Conditions: water 37° C., pH 6.5, 5 mm capsule of Example 3; for Total concentration of aromatic molecules over all samples: Total 0-70 seconds
Procedure: A 5 mm capsule, the composition of which is given in Table 5, is analyzed according to test A.
The taking of various samples makes it possible to establish the in vitro kinetics of release of aromatic molecules in water at 37° C.+/−1° C. and at pH 6.5. Table 6 indicates the concentration of aromatic molecules of various samples.
It may be noted that most of the molecules are released within 40 s, at most within 70 s.

SMILES	Total concentration of aromatic molecules over all samples	concentration of aromatic molecules of sample (time 0-5 seconds)	concentration of aromatic molecules of sample (time 5-10 seconds)	concentration of aromatic molecules of sample (time 10-15 seconds)	concentration of aromatic molecules of sample (time 15-20 seconds)	concentration of aromatic molecules of sample (time 20-30 seconds)	concentration of aromatic molecules of sample (time 30-40 seconds)	concentration of aromatic molecules of sample (time 40-50 seconds)	concentration of aromatic molecules of sample (time 50-60 seconds)	concentration of aromatic molecules of sample (time 60-70 seconds)
CC1CCC(C(C)C)C(O)C1 (centres unmarked) [Menthol]	399 ppm	47 ppm	67 ppm	63 ppm	90 ppm	62 ppm	24 ppm	24 ppm	16 ppm	6 ppm
Cc1ccc(C(C)C)c(O)c1 [Thymol]	139 ppm	19 ppm	28 ppm	22 ppm	31 ppm	20 ppm	7 ppm	7 ppm	4 ppm	1 ppm

Reference: US7754239B2, “Capsule for rapid solubilization and release of the content” (V. Mane Fils S.A., priority 2001, dated 2010)
